± gives the expanded uncertainty stated by the source.
Columns and labels:
[1] = xn = mol fraction of the nth substance listed; conditions: 100 kPa, Liquid, x1 = 1; for mass density: Vibrating tube method; for viscosity: Capillary tube (Ostwald / Ubbelohde) method
[2] = 100 kPa, Liquid; for viscosity: Capillary tube (Ostwald / Ubbelohde) method; for mass density: Vibrating tube method

| SMILES | mass density ([1]; 293.15 K) [kg/m3] | viscosity ([1]; 298.15 K) [mPa·s] | mass density ([1]; 298.15 K) [kg/m3] | viscosity ([1]; 303.15 K) [mPa·s] | mass density ([1]; 303.15 K) [kg/m3] | viscosity ([1]; 308.15 K) [mPa·s] | mass density ([1]; 308.15 K) [kg/m3] | viscosity ([1]; 313.15 K) [mPa·s] | mass density ([1]; 313.15 K) [kg/m3] | viscosity ([1]; 318.15 K) [mPa·s] | mass density ([1]; 318.15 K) [kg/m3] | viscosity ([1]; 323.15 K) [mPa·s] | mass density ([1]; 323.15 K) [kg/m3] | viscosity ([2]; 298.15 K) [mPa·s] | viscosity ([2]; 303.15 K) [mPa·s] | viscosity ([2]; 308.15 K) [mPa·s] | viscosity ([2]; 313.15 K) [mPa·s] | viscosity ([2]; 318.15 K) [mPa·s] | viscosity ([2]; 323.15 K) [mPa·s] | further results |
| --- | --- | --- | --- | --- | --- | --- | --- | --- | --- | --- | --- | --- | --- | --- | --- | --- | --- | --- | --- | --- |
| CN1CCCC1=O [N-methylpyrrolidone] + CC1COC(=O)O1 | 1032.66 ± 1.6 | 1.677 ± 0.036 | 1028.17 ± 1.6 | 1.536 ± 0.033 | 1023.6 ± 1.6 | 1.429 ± 0.03 | 1019.49 ± 1.6 | 1.338 ± 0.029 | 1014.74 ± 1.6 | 1.248 ± 0.027 | 1010.2 ± 1.6 | 1.178 ± 0.025 | 1005.89 ± 1.6 |  |  |  |  |  |  |  |
| CC1COC(=O)O1 (stereo not given) [4-methyl-1,3-dioxolan-2-one] |  |  |  |  |  |  |  |  |  |  |  |  |  | 2.52 ± 0.052 | 2.27 ± 0.047 | 2.08 ± 0.043 | 1.91 ± 0.04 | 1.75 ± 0.036 | 1.62 ± 0.034 |  |
| CN1CCCC1=O [N-methylpyrrolidone] |  |  |  |  |  |  |  |  |  |  |  |  |  | 1.677 ± 0.036 | 1.536 ± 0.033 | 1.429 ± 0.03 | 1.338 ± 0.029 | 1.248 ± 0.027 | 1.178 ± 0.025 | mass density ([2]; 293.15 K): 1032.66 ± 1.6 kg/m3; mass density ([2]; 298.15 K): 1028.17 ± 1.6 kg/m3; mass density ([2]; 303.15 K): 1023.6 ± 1.6 kg/m3; mass density ([2]; 308.15 K): 1019.49 ± 1.6 kg/m3; mass density ([2]; 313.15 K): 1014.74 ± 1.6 kg/m3; mass density ([2]; 318.15 K): 1010.2 ± 1.6 kg/m3; mass density ([2]; 323.15 K): 1005.89 ± 1.6 kg/m3 |
| CN1CCCC1=O [N-methylpyrrolidone] + O=C1CCCO1 | 1032.66 ± 1.6 | 1.677 ± 0.036 | 1028.17 ± 1.6 | 1.536 ± 0.033 | 1023.6 ± 1.6 | 1.429 ± 0.03 | 1019.49 ± 1.6 | 1.338 ± 0.029 | 1014.74 ± 1.6 | 1.248 ± 0.027 | 1010.2 ± 1.6 | 1.178 ± 0.025 | 1005.89 ± 1.6 |  |  |  |  |  |  |  |

Source: the NIST ThermoML archive (doi:10.1016/j.jct.2015.08.013)
